C=C(C)[C@@H]1CC[C@]2(C(=O)O)CC[C@]3(C)[C@H](CC[C@@H]4[C@@]5(C)CCC(=O)C(C)(C)[C@@H]5CC[C@]43C)[C@@H]12
solubility (mole fraction)
Settings	278.15 K	283.15 K	288.15 K	293.15 K	298.15 K	303.15 K	308.15 K	313.15 K	318.15 K
in 2-methoxyethanol	0.00863	0.00923	0.00969	0.0103	0.0108	0.0117	0.0127	0.0137	0.0149
in 2-propoxyethanol	0.0239	0.0248	0.025	0.0264	0.0274	0.0288	0.03	0.0314	0.0331
in ethanol	0.00376	0.00399	0.00454	0.00503	0.00566	0.00617	0.00693	0.00757	0.00848
in isopropanol	0.00531	0.00564	0.00651	0.0075	0.00865	0.00968	0.0114	0.0138	0.0158
in methanol	0.00129	0.00136	0.00146	0.00157	0.00171	0.00192	0.00211	0.00234	0.0027
in n-propanol	0.00728	0.00762	0.00827	0.00914	0.0104	0.0116	0.0131	0.0144	0.0163

— BigSolDB 2.1
